From US20080194640A1, “Optically Active Tetrahydronaphthalene Derivative” (priority 2005, published 2008) come the findings set out here.

Converted amounts (≈) assume the structure as drawn.

The nature of data set [1]: Evaluation of biological availability (bioavailability) in rat. The settings on record: for AUC: rat, fasted female SD rats, plasma. The format is in vivo. How it is done:
Free base•Form-I crystal was administered to female SD rats fasted from the day before the experiment and the plasma concentration was measured under the following conditions. As a result, the areas under blood concentration-time curve (AUC) of the drug after intravenous administration and oral administration are as shown in Table 1.
• Dosing formulation: 0.5 mg/ml in aqueous physiological saline. • Dose: 1 mg/2 ml/kg • Administration method: bolus administration from the tail vein Collection of blood samples: About 0.1-0.2 mL of blood was taken from the cervical vein at 3 min, 10 min, 30 min, 1 hr, 2 hr, 4 hr and 6 hr after administration. The blood was centrifuged, and the plasma was separated.
• Dosing formulation: 2 mg/ml suspension adjusted by gradually adding aqueous hydroxypropylmethylcellulose solution to the compound of the present invention thoroughly triturated in an agate mortar. • Dose: 10 mg/5 ml/kg • Administration method: Forcible administration into the stomach • Collection of blood samples: About 0.1-0.2 mL of blood was taken from the cervical vein at 30 min, 1 hr, 2 hr, 4 hr, 6 hr, 8 hr and 24 hr after administration. The blood was centrifuged, and the plasma was separated.
The plasma concentration of the administered compound was measured by LC-MS/MS.
LC conditions • Column: Capcellpak C18 UG-120 (2.0φ mm×50 mm, S-5 μm, Shiseido Co., Ltd.) • Mobile phase: acetonitrile • Flow rate: 0.25 mL/min • Column temperature: room temperature • Auto sampler temperature set to: 25° C. • Gradient setting: • 0 min→0.6 min:25%→25% • 0.6 min→3.6 min:25%→75% • 3.6 min→6 min:75%→75% • 6 min→6.1 min:75%→25% • 6.1 min→9.5 min:25%→25% • MS/MS conditions • Ionization method: ESI • Capillary temperature: 350° C. • Sheath gas pressure: 80 psi • Spray voltage: 4.5 kV.
The plasma concentration of the racemate was measured by a similar method, and the biological availability was calculated and found to be 20%.

Data set [2] in a line: Dissolution test (JP Dissolution Test Method 2, paddle method). It counts as physicochemical. The settings on record: JP second fluid 900 ml, paddle 50 rpm, 37° C., about 10 mg based on free form. How it is done: The compounds obtained in Examples 22, 24 and 25, free base•Form-I crystal, and the racemate of the compound of Example 3 were subjected to a dissolution test, and the dissolution rate was compared. According to this test method, the amount of dissolution relative to the content of each compound in the test solution is expressed in the dissolution rate (%), which was measured over time.
For the method of adding each compound, the compound (about 10 mg based on free form) was precisely weighed and directly added to a vessel. As the test solution, The Japanese Pharmacopoeia second fluid (900 ml) was used, and the test was performed according to The Japanese Pharmacopoeia Dissolution Test Method 2 (Paddle Method) at 50 rpm. The test temperature was 37° C. After the start of the test, solution for dissolution (10 ml) was taken at suitable times, and a test solution (10 ml) heated to 37° C. was soon carefully added for compensation. The collected solution for dissolution was passed through a filter (DISMIC 13HP PTFE (0.45 μm); Toyo Roshi Kaisha). The filtrate in the early stage (5 ml) was removed, the subsequent filtrate (500 μl) was precisely measured, and the dilution solution (water/acetonitrile/trifluoroacetic acid mixture=500:500:1, 500 μl) was accurately added to give a sample solution.
Separately, about 10 mg of the free base•Form-I crystal was precisely weighed, and a dilution solution (water/acetonitrile/trifluoroacetic acid mixture=500:500:1) was added to 50 ml sharp. This solution (2.5 ml) was precisely measured, and a dilution solution (water/acetonitrile/trifluoroacetic acid mixture=500:500:1) was added to 50 ml sharp. This was used as the standard solution of free base•Form-I crystal (10 μg/ml). The sample solution and the standard solution were measured under the HPLC conditions shown below, the peak areas AT and AS of the free base•Form-I crystal in each solution were measured, and the dissolution rate was determined by the following formula.
The nth dissolution rate (%) of free base•Form-I crystal=Wn/W100%×100 • W1: the first dissolution amount (mg) of free base•Form-I crystal
=(900×AT1)×WS/AS/1000 • Wn: the nth (n>1) dissolution amount (mg) of free base•Form-I crystal
={900×ATn+10×(AT1+AT2 . . . +ATn−1)}×WS/AS/1000 • W100%: cast amount (mg) of drug substance • Ws: collected amount (mg) of free base•Form-I crystal standard product • As: peak area of free base•Form-I crystal in standard solution • AT1: peak area of free base•Form-I crystal in sample solution by the first sampling • ATn: peak area of free base•Form-I crystal in sample solution by the nth sampling. • For racemate, the dissolution rate was calculated based on the total value of S form and R form. […]

Data set [3] in a line: Solubility test (Japanese Pharmacopoeia Solution 2). The settings on record: pH 6.8, aqueous buffer, thermodynamic from solid; Japanese Pharmacopoeia Solution 2, 37° C., shaken 30 min; read-out: solubility after 30 min. The format is physicochemical. As for the experimental part: An adequate amount of a sample was taken, and a test solution (The Japanese Pharmacopoeia Solution 2) was added to each to a concentration of about 1 mg/ml. The sample was dispersed by ultrasonication for 2 min, shaken at 37° C. for 30 min, and the solution was filtered through DISMIC13HP ([…]). The filtrate in the early stage (3 ml) was removed, the subsequent filtrate (500 μl) was precisely measured, and the dilution solution (water/acetonitrile/trifluoroacetic acid mixture=500:500:1, 500 μl) was accurately added to give a sample solution. The sample solution and the standard solution prepared in Experimental Example 5 were subjected to the measurement under the similar HPLC conditions as in Experimental Example 5.

For orientation: AUC means concentration integrated over time. The low end stands for low exposure, the high end for high exposure. Broadly, the solubility is the concentration that dissolves in the medium under given conditions. With `CCn1cc(CN(C(=O)C2CCCc3c(O)cccc32)c2ccc(C(C)C)nc2)cn1` (racemic) [racemate of the compound of Example 3, N-[(1-ethyl-1H-pyrazol-4-yl)methyl]-5-hydroxy-N-(6-isopropylpyridin-3-yl)-1,2,3,4-tetrahydronaphthalene-1-carboxamide, reference compound], the biological availability in data set [1] (female SD rats, oral 10 mg/kg vs intravenous 1 mg/kg) is on record as 20%. For the same compound, the area under the curve (AUC) came out at 289 ng·h/mL in data set [1] (intravenous administration 1 mg/kg) and 572 ng·h/mL in data set [1] (oral administration 10 mg/kg). Further, the “dissolution rate (comparison)” value in data set [2] was “slowest”. Also, the solubility at 30 min in data set [3] came to 31 µg/mL (≈ 74.1 µM).
